Reference: ChEMBL document CHEMBL5241090, “A comprehensive overview of β-carbolines and its derivatives as anticancer agents” (Eur J Med Chem, 2021)
≈ marks a conversion by molar mass, not a printed value.

How the values were obtained:
HL-60 = assay: Cytotoxicity against human HL-60 cells; assay type: functional, cell-based; settings: Homo sapiens, HL-60; read-out: IC50
[1] = Cytotoxicity against mouse P388 cells; assay type: functional, cell-based
A549 [2] = assay: Cytotoxicity against human A549 cells incubated for 48 hrs by neutral red dye based assay; assay type: functional, cell-based; settings: A549, 48 h
HCT-116 [3] = assay: Cytotoxicity against human HCT-116 cells incubated for 48 hrs by neutral red dye based assay; assay type: functional, cell-based; settings: HCT-116, 48 h
MCF7 [4] = assay: Cytotoxicity against human MCF7 cells incubated for 48 hrs by neutral red dye based assay; assay type: functional, cell-based; settings: MCF7, 48 h
CNE-2 = assay: Cytotoxicity against human CNE-2 cells incubated for 48 hrs by MTT assay; assay type: functional, cell-based; settings: CNE-2, 48 h
L1210 = assay: Cytotoxicity against mouse L1210 cells; assay type: functional, cell-based
A549 [5] = assay: Growth inhibition of human A549 cells incubated for 72 hrs by SRB assay; assay type: functional, cell-based; settings: A549, 72 h
MDA-MB-231 = assay: Growth inhibition of human MDA-MB-231 cells incubated for 72 hrs by SRB assay; assay type: functional, cell-based; settings: MDA-MB-231, 72 h
HT-29 = assay: Growth inhibition of human HT-29 cells incubated for 72 hrs by SRB assay; assay type: functional, cell-based; settings: HT-29, 72 h
NCI-H1299 = assay: Cytotoxicity against human NCI-H1299 cells; assay type: functional, cell-based
HCT-116 [6] = assay: Cytotoxicity against human HCT-116 cells; assay type: functional, cell-based
A549 [7] = assay: Cytotoxicity against human A549 cells; assay type: functional, cell-based
L5178Y = assay: Cytotoxicity against mouse L5178Y cells incubated 72 hrs; assay type: functional, cell-based; settings: for EC50: time 72 hrs, read-out: ED50 (the source's name)
DNA topoisomerase 1 = target: T1, DNA topoisomerase 1 (Homo sapiens, UniProt P11387); assay: Inhibition of Topoisomerase 1 (unknown origin)
T1 sequence (P11387 whole entry): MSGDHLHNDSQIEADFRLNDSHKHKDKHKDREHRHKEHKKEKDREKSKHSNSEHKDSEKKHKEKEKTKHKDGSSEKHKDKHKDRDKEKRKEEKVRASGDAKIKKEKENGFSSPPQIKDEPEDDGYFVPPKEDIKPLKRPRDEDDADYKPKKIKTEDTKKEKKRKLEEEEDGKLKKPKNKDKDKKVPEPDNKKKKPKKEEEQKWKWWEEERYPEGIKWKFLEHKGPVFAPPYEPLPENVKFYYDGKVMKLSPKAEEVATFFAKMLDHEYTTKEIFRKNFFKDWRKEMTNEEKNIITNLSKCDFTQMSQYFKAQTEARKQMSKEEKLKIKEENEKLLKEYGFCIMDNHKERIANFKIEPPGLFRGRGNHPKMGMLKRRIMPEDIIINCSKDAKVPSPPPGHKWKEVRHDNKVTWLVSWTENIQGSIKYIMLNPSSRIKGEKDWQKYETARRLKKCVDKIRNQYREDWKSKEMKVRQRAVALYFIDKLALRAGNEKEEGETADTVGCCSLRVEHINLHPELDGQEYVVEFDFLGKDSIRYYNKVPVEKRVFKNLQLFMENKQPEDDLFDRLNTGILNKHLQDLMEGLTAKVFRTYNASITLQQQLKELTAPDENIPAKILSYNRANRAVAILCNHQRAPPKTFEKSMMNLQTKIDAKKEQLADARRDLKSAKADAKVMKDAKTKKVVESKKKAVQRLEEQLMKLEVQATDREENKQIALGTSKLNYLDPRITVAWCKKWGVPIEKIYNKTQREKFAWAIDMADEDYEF

MCF7 [8] = assay: Cytotoxicity against human MCF7 cells; assay type: functional, cell-based
Hep 3B2 = assay: Cytotoxicity against human Hep3B cells after 48 hrs incubation by SRB assay; assay type: functional, cell-based
HepG2 = assay: Cytotoxicity against human HepG2 cells after 48 hrs incubation by SRB assay; assay type: functional, cell-based; settings: HepG2, 48 h
[9] = tested on: Panel NCI-60 (60 carcinoma cell lines); assay: Cytotoxicity against human Panel NCI-60 (60 carcinoma cell lines); assay type: functional, cell-based
KB = assay: Cytotoxicity against human Vincristine-resistant KB cells; assay type: functional, cell-based; settings: pooled result: one value given for 6 cell lines, strains, targets or settings
SK-OV-3 = assay: Antiproliferative activity against human SK-OV-3 cells; assay type: functional, cell-based
A2780 = assay: Antiproliferative activity against human A2780 cells; assay type: functional, cell-based

`COc1ccc2c3c([nH]c2c1)-c1c(C(=O)c2ncc4ccccc4n2)ccn1CC3` gave an IC50 (HL-60) of 13.6 µM.
Molecule `C=Cc1nccc2c1[nH]c1c(O)cccc12` has an IC50 [1] of 0.1 µg/mL (≈ 0.476 µM).
`Nc1nccc(-c2nccc3c2[nH]c2ccccc23)n1` [ANNOMONTINE] gave an IC50 (A549 [2]) of 1.09 µg/mL (≈ 4.17 µM), an IC50 (HCT-116 [3]) of 0.42 µg/mL (≈ 1.61 µM) and an IC50 (MCF7 [4]) of 1.21 µg/mL (≈ 4.63 µM).
Molecule `COc1c(OC)c2nccc3c4ccccc4n(c1=O)c23` [4,5-DIMETHOXYCANTHIN-6-ONE] has an IC50 (CNE-2) of 9.86 µg/mL (≈ 35.2 µM).
With `O[C@]12C=C(c3nccc4c3[nH]c3ccccc34)[C@@H]3CCN(CCCC/C=C\CC1)C[C@@]31CC/C=C\CCCCN[C@H]12` [MANZAMINE J] the IC50 (L1210) was 2.6 µg/mL (≈ 4.72 µM).
Work on `O=C(O)c1c(-c2c[nH]c3cc(O)ccc23)ncc2[nH]c3ccc(O)cc3c12` yielded an IC50 (A549 [5]) of 30 µg/mL (≈ 83.5 µM), an IC50 (MDA-MB-231) of 25 µg/mL (≈ 69.6 µM) and an IC50 (HT-29) of 42 µg/mL (≈ 117 µM).
Molecule `CC(=O)c1nc(C(=O)NCCc2ccc(O)cc2)cc2c1[nH]c1ccccc12` has an IC50 (NCI-H1299) of 37.9 µM, an IC50 (HCT-116 [6]) of 37.9 µM and an IC50 (A549 [7]) of 37.9 µM.
With `[O-][n+]1ccc2c([nH]c3ccccc32)c1C1=C[C@@]2(O)CC/C=C\CCCCN3CC[C@@H]1[C@]1(CC/C=C\CCCCN[C@H]12)C3` the EC50 (L5178Y) was 3.2 µg/mL (≈ 5.65 µM).
For `O[C@]12C=C(c3nccc4c3[nH]c3ccccc34)[C@@H]3CCN(CCCC/C=C\CC1)C[C@@]31C[C@@H]3/C=C\CCCCN3[C@H]12` [MANZAMINE A], the IC50 [1] was 0.07 µg/mL (≈ 0.128 µM).
In the case of `COc1cc(-c2nc(C(=O)N[C@@H](Cc3c[nH]c4ccccc34)C(=O)N[C@@H](Cc3c[nH]c4ccccc34)C(=O)N[C@@H](CCSC)C(=O)OCc3ccccc3)cc3c2[nH]c2ccccc23)ccc1O`, the IC50 (HL-60) is reported as 16 µM.
`c1ccc2c(c1)[nH]c1cnccc12` [NORHARMANE] gave an IC50 (DNA topoisomerase 1) of 31 µM.
`CNc1nccc(-c2nccc3c2[nH]c2ccccc23)n1` gave an IC50 (HCT-116 [6]) of 2.9 µM and an IC50 (MCF7 [8]) of 4.33 µM.
In the case of `Cn1c2cnccc2c2c(Br)c(O)ccc21`, the IC50 (L1210) is reported as 2.4 µg/mL (≈ 8.66 µM) and the IC50 (L5178Y; 72 h) is reported as 1.8 µg/mL (≈ 6.5 µM).
`COc1cnc(C(=O)[C@@H](Cc2nccc3c2[nH]c2ccccc23)OC)c2[nH]c3ccccc3c12` gave an IC50 (Hep 3B2) of over 50 µM and an IC50 (HepG2) of 33.9 µM.
With `COc1ccc(-c2nc(-c3nc4ccc(OC)cc4[nH]3)cc3c2[nH]c2ccccc23)cc1` the IC50 [9] was 0.3 µM.
In the case of `C1=C\CCCCN(CCc2nccc3c2[nH]c2ccccc23)CCCC/1` [MANZAMINE C], the IC50 [1] is reported as 3 µg/mL (≈ 8.63 µM).
In the case of `CC(C=O)CNc1nccc(-c2nccc3c2[nH]c2ccccc23)n1` (configuration not stated), the IC50 (HCT-116 [6]) is reported as 3.35 µM and the IC50 (MCF7 [8]) is reported as 6.05 µM.
`COc1ccc2c3ccnc4ccc(=O)n(c2c1)c43` gave an IC50 (KB) of 1.4 µg/mL (≈ 5.59 µM) and an IC50 [1] of 1.4 µg/mL (≈ 5.59 µM).
In the case of `CC(=O)c1nc(C(=O)NCCc2ccccc2)cc2c1[nH]c1ccccc12`, the IC50 (NCI-H1299) is reported as 37.4 µM, the IC50 (HCT-116 [6]) is reported as 37.4 µM and the IC50 (A549 [7]) is reported as 37.4 µM.
`COc1c(OC)c2nccc3c4cc(O)ccc4n(c1=O)c23` showed an IC50 (CNE-2) of 11.6 µg/mL (≈ 39.2 µM).
For `C=Cc1ncc(OC)c2c3ccccc3n(OC)c12`, the IC50 (SK-OV-3) was 66.6 µM and the IC50 (A2780) was 14.8 µM.
`COc1ccc2c(c1)NC1C2CCN2C(=O)[C@]34C5Nc6cc(OC)ccc6C5CCN3[C@]12C4(C)C` (some centres not stated) gave an IC50 (HL-60) of 5.8 µM.
With `O=c1ccc2nccc3c4ccc(O)cc4n1c23` the IC50 (KB) was 1.5 µg/mL (≈ 6.35 µM) and the IC50 [1] was 1.5 µg/mL (≈ 6.35 µM).
With `CNC(=O)CCCc1nccc2c1[nH]c1ccccc12` the IC50 (A549 [2]) was 2.15 µg/mL (≈ 8.04 µM), the IC50 (HCT-116 [3]) was 0.67 µg/mL (≈ 2.51 µM) and the IC50 (MCF7 [4]) was 3.5 µg/mL (≈ 13.1 µM).
In the case of `O=C1NCCc2c1[nH]c1ccccc21`, the IC50 (A549 [2]) is reported as 10.1 µg/mL (≈ 54.3 µM), the IC50 (HCT-116 [3]) is reported as 7.45 µg/mL (≈ 40 µM) and the IC50 (MCF7 [4]) is reported as 8.27 µg/mL (≈ 44.4 µM).
In the case of `[O-][N+]1=C(C2=C[C@@]3(O)CC/C=C\CCCCN4CC[C@@H]2[C@]2(CC5/C=C\CCCCN5[C@H]23)C4)c2[nH]c3ccccc3c2CC1` (some centres not stated), the EC50 (L5178Y) is reported as 1.6 µg/mL (≈ 2.82 µM).
For `[O-][n+]1ccc2c([nH]c3ccccc32)c1C1=C[C@@]2(O)CC/C=C\CCCCN3CC[C@@H]1[C@]1(CC4/C=C\CCCCN4[C@H]12)C3` (some centres not stated), the EC50 (L5178Y) was 1.6 µg/mL (≈ 2.83 µM).
Molecule `COc1cnc(C(=O)[C@@H](CC(=O)c2nccc3c2[nH]c2ccccc23)OC)c2[nH]c3ccccc3c12` has an IC50 (Hep 3B2) of 31.4 µM and an IC50 (HepG2) of over 50 µM.
For `O=c1ccc2c3c(cc[n+]2[O-])c2ccc(O)cc2n13`, the IC50 (KB) was 3.5 µg/mL (≈ 13.9 µM) and the IC50 [1] was 3.5 µg/mL (≈ 13.9 µM).
For `C=Cc1ncc(OC)c2c1[nH]c1c(O)cccc12`, the IC50 (SK-OV-3) was 16.3 µM and the IC50 (A2780) was 8.47 µM.
